Results reported in the NIST ThermoML archive (doi:10.1021/je200862b).

Assays:
[1] = xn = mol fraction of the nth substance listed; conditions: 101 kPa, Liquid; for viscosity: Capillary tube (Ostwald / Ubbelohde) method
[2] = 101 kPa, Liquid; for viscosity: Capillary tube (Ostwald / Ubbelohde) method

CN(C)c1ccccc1 [N,N-dimethylaniline] + CCC(=O)O
viscosity [mPa·s], [1]
Conditions	x2 = 0	x2 = 0.102	x2 = 0.2054	x2 = 0.3071	x2 = 0.4092	x2 = 0.5107	x2 = 0.6178	x2 = 0.7083	x2 = 0.8023	x2 = 0.8987
303.15 K	1.174	1.27	1.329	1.386	1.446	1.494	1.545	1.534	1.457	1.225
313.15 K	0.9823	1.019	1.058	1.093	1.124	1.149	1.151	1.119	1.06	0.9646
323.15 K	0.8259	0.8432	0.8693	0.8949	0.9196	0.9397	0.9442	0.9121	0.864	0.7783

mass density [kg/m3], [1], Pycnometric method
Conditions	x2 = 0	x2 = 0.102	x2 = 0.2054	x2 = 0.3071	x2 = 0.4092	x2 = 0.5107	x2 = 0.6178	x2 = 0.7083	x2 = 0.8023	x2 = 0.8987
303.15 K	948.02	954.36	959.8	964.49	969.31	974.03	978.56	982.24	985.32	986.44
313.15 K	938.5	943.74	949.09	954.21	959.17	963.99	968.62	972.2	975.35	975.69
323.15 K	930.72	934.82	939.72	944.52	–	953.51	958	961.05	963.47	963.54

CCN(CC)c1ccccc1 [N,N-diethylaniline]
[2]
Conditions	viscosity [mPa·s]
303.15 K	1.703
313.15 K	1.402
323.15 K	1.049

[2], Vibrating tube method
Conditions	mass density [kg/m3]
303.15 K	925.98
313.15 K	917.72
323.15 K	912.8

CCN(CC)c1ccccc1 [N,N-diethylaniline] + CCC(=O)O
viscosity [mPa·s], [1]
Conditions	x2 = 0	x2 = 0.1047	x2 = 0.2096	x2 = 0.3142	x2 = 0.4164	x2 = 0.5177	x2 = 0.6097	x2 = 0.7077	x2 = 0.8123	x2 = 0.9156
303.15 K	1.703	1.801	2.04	2.404	2.91	3.663	4.04	3.968	3.26	1.532
313.15 K	1.402	1.45	1.59	1.765	2.118	2.527	2.88	2.737	2.086	1.247
323.15 K	1.049	1.068	1.173	1.315	1.555	1.865	2.1	1.949	1.51	0.9723

mass density [kg/m3], [1], Vibrating tube method
Conditions	x2 = 0	x2 = 0.1047	x2 = 0.2096	x2 = 0.3142	x2 = 0.4164	x2 = 0.5177	x2 = 0.6097	x2 = 0.7077	x2 = 0.8123	x2 = 0.9156
303.15 K	925.98	933.41	942.07	952.1	963.82	977.88	989.1	996.15	995	990.93
313.15 K	917.72	924.61	932.8	942.21	953.72	967.27	977.5	983.95	982.7	980.07
323.15 K	912.8	919.51	926.38	934.92	944.35	955.31	965.34	971.29	974.71	974.19

CCC(=O)O [propanoic acid] + CN(C)c1ccccc1
[1], x1 = 1
Conditions	viscosity [mPa·s]
303.15 K	0.9496
313.15 K	0.8476
323.15 K	0.7062

[1], Pycnometric method, x1 = 1
Conditions	mass density [kg/m3]
303.15 K	982.09
313.15 K	973.4
323.15 K	961.39

CCC(=O)O [propanoic acid] + CCN(CC)c1ccccc1
[1], x1 = 1
Conditions	viscosity [mPa·s]
303.15 K	0.9496
313.15 K	0.8476
323.15 K	0.7062

[1], Vibrating tube method, x1 = 1
Conditions	mass density [kg/m3]
303.15 K	982.09
313.15 K	973.4
323.15 K	961.39

CN(C)c1ccccc1 [N,N-dimethylaniline]
[2]
Conditions	viscosity [mPa·s]
303.15 K	1.174
313.15 K	0.9823
323.15 K	0.8259

[2], Pycnometric method
Conditions	mass density [kg/m3]
303.15 K	948.02
313.15 K	938.5
323.15 K	930.72

CCC(=O)O [propanoic acid]
[2]
Conditions	viscosity [mPa·s]
303.15 K	0.9496
313.15 K	0.8476
323.15 K	0.7062

[2], Pycnometric method
Conditions	mass density [kg/m3]
303.15 K	982.09
313.15 K	973.4
323.15 K	961.39
